Assay results published in PubChem BioAssay AID248 (DTP/NCI, 2004).
Several values for one entry are separate records, joined by “and”; a condition that tells them apart may be missing. Identical values can stand only once. Toxic doses and inconclusive results are not listed. No stated cut-off is given here; in the data, active means T/C of 150% or more; inactive means T/C below 125%.

Test system: L1210 leukemia ip in BDF1 mice, survival T/C
Assay: NCI In Vivo Anticancer Drug Screen. Data for tumor model L1210 Leukemia (intraperitoneal) in B6D2F1 (BDF1) mice
Conditions: endpoint: mean survival time, higher = longer survival
How it was run: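 Antitumor effect is assessed in tumor-bearing animals. Survival in the compound arm is compared with a vehicle-dosed control arm and expressed as their quotient.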

[1] = dose: 100.0 mg/kg/injection, schedule: Q01DX009 (ip), vehicle: Klucel (hydroxypropylcellulose) (HPC)
[2] = dose: 100.0 mg/kg/injection, schedule: Q04DX002 (ip), vehicle: Klucel (hydroxypropylcellulose) (HPC)
[3] = dose: 200.0 mg/kg/injection, schedule: Q01DX009 (ip), vehicle: Klucel (hydroxypropylcellulose) (HPC)
[4] = dose: 200.0 mg/kg/injection, schedule: Q04DX002 (ip), vehicle: Klucel (hydroxypropylcellulose) (HPC)
[5] = dose: 400.0 mg/kg/injection, schedule: Q04DX002 (ip), vehicle: Klucel (hydroxypropylcellulose) (HPC)
[6] = dose: 100.0 mg/kg/injection, schedule: Q04DX003 (ip), vehicle: saline
[7] = dose: 200.0 mg/kg/injection, schedule: Q04DX003 (ip), vehicle: saline
[8] = dose: 400.0 mg/kg/injection, schedule: Q04DX003 (ip), vehicle: saline
[9] = dose: 100.0 mg/kg/injection, schedule: Q04DX003 (ip), vehicle: Klucel (hydroxypropylcellulose) (HPC)
[10] = dose: 200.0 mg/kg/injection, schedule: Q04DX003 (ip), vehicle: Klucel (hydroxypropylcellulose) (HPC)
[11] = dose: 100.0 mg/kg/injection, schedule: Q04DX003 (ip), vehicle: saline with Tween-80
[12] = dose: 200.0 mg/kg/injection, schedule: Q04DX003 (ip), vehicle: saline with Tween-80
[13] = dose: 400.0 mg/kg/injection, schedule: Q04DX003 (ip), vehicle: saline with Tween-80
[14] = dose: 50.0 mg/kg/injection, schedule: Q01DX009 (ip), vehicle: Klucel (hydroxypropylcellulose) (HPC)
[15] = dose: 50.0 mg/kg/injection, schedule: Q01DX001 (ip), vehicle: carboxymethylcellulose (CMC)
[16] = dose: 100.0 mg/kg/injection, schedule: Q01DX001 (ip), vehicle: carboxymethylcellulose (CMC)

Measured: T/C

C/C(=C\c1ccccc1)C(=O)c1ccccc1
inactive: dose: 6.25 mg/kg/injection, schedule: Q01DX009 (ip), vehicle: water 109 % of control | dose: 12.5 mg/kg/injection, schedule: Q01DX009 (ip), vehicle: water 107 % of control | dose: 25.0 mg/kg/injection, schedule: Q01DX009 (ip), vehicle: water 101 % of control and 91 % of control | dose: 50.0 mg/kg/injection, schedule: Q01DX009 (ip), vehicle: water 95 % of control and 112 % of control | [1] 93 % of control | dose: 100.0 mg/kg/injection, schedule: Q01DX009 (ip), vehicle: other 113 % of control | dose: 100.0 mg/kg/injection, schedule: Q01DX009 (ip), vehicle: water 101 % of control and 106 % of control | [2] 100 % of control | dose: 100.0 mg/kg/injection, schedule: Q04DX003 (ip), vehicle: other 101 % of control | [3] 98 % of control | dose: 200.0 mg/kg/injection, schedule: Q01DX009 (ip), vehicle: other 101 % of control | dose: 200.0 mg/kg/injection, schedule: Q01DX009 (ip), vehicle: water 104 % of control and 107 % of control | [4] 92 % of control | dose: 200.0 mg/kg/injection, schedule: Q04DX003 (ip), vehicle: other 101 % of control | dose: 400.0 mg/kg/injection, schedule: Q01DX009 (ip), vehicle: Klucel (hydroxypropylcellulose) (HPC) 105 % of control | dose: 400.0 mg/kg/injection, schedule: Q01DX009 (ip), vehicle: other 108 % of control | dose: 400.0 mg/kg/injection, schedule: Q01DX009 (ip), vehicle: water 106 % of control | [5] 95 % of control | dose: 400.0 mg/kg/injection, schedule: Q04DX003 (ip), vehicle: other 100 % of control

NC(=O)NC(=O)C1C2CC3OC(=O)C1C3C2 (stereo unspecified)
inactive: [6] 93 % of control | [7] 93 % of control | [8] 98 % of control

CC(=O)OC1OC(CS[As](C)C)C(OC(C)=O)C(OC(C)=O)C1OC(C)=O (stereo unspecified)
inactive: [9] 94 % of control | [10] 105 % of control

COCCN1CCC(C)(CO)C1 (stereo unspecified)
inactive: [6] 87 % of control | [7] 93 % of control | [8] 92 % of control

ClCCCN1Cc2ccccc2CCc2ccccc2C1
inactive: [9] 102 % of control | [10] 100 % of control | dose: 400.0 mg/kg/injection, schedule: Q04DX003 (ip), vehicle: Klucel (hydroxypropylcellulose) (HPC) 107 % of control

O=C(O)CS(=O)(=O)Cc1ccccc1
inactive: [11] 97 % of control | [12] 90 % of control

CC(=O)N[C@H]1CC[C@H]2[C@@H]3CCC4=CC(=O)CC[C@]4(C)[C@H]3CC[C@]12C
inactive: [11] 86 % of control | [12] 92 % of control | [13] 86 % of control

Cc1cn(O)c2nc(N)nc(=O)c-2n1
inactive: dose: 25.0 mg/kg/injection, schedule: Q01DX001 (ip), vehicle: Klucel (hydroxypropylcellulose) (HPC) 97 % of control | dose: 50.0 mg/kg/injection, schedule: Q01DX001 (ip), vehicle: Klucel (hydroxypropylcellulose) (HPC) 103 % of control | dose: 100.0 mg/kg/injection, schedule: Q01DX001 (ip), vehicle: Klucel (hydroxypropylcellulose) (HPC) 100 % of control and 101 % of control

Clc1c(CI)ccc(CI)c1Cl
inactive: dose: 6.25 mg/kg/injection, schedule: Q01DX009 (ip), vehicle: saline with Tween-80 100 % of control | dose: 12.5 mg/kg/injection, schedule: Q01DX009 (ip), vehicle: saline with Tween-80 92 % of control | dose: 25.0 mg/kg/injection, schedule: Q01DX009 (ip), vehicle: Klucel (hydroxypropylcellulose) (HPC) 93 % of control | dose: 25.0 mg/kg/injection, schedule: Q01DX009 (ip), vehicle: saline with Tween-80 92 % of control | [14] 108 % of control | dose: 50.0 mg/kg/injection, schedule: Q01DX009 (ip), vehicle: saline with Tween-80 89 % of control | [9] 89 % of control

CC(=O)Nc1ccc2c(ccc3ccc4ccccc4c32)c1
inactive: [2] 102 % of control | [4] 105 % of control | [5] 105 % of control

CCCCCC(/C=N\Nc1nnc(N/N=C\C(=C\c2ccccc2)CCCCC)c2ccccc12)=C/c1ccccc1
inactive: [15] 102 % of control | dose: 88.0 mg/kg/injection, schedule: Q01DX001 (ip), vehicle: carboxymethylcellulose (CMC) 98 % of control | [16] 108 % of control | dose: 133.0 mg/kg/injection, schedule: Q01DX001 (ip), vehicle: carboxymethylcellulose (CMC) 101 % of control | dose: 200.0 mg/kg/injection, schedule: Q01DX001 (ip), vehicle: carboxymethylcellulose (CMC) 104 % of control and 114 % of control | dose: 300.0 mg/kg/injection, schedule: Q01DX001 (ip), vehicle: carboxymethylcellulose (CMC) 102 % of control and 104 % of control

CCCCSc1nc2ccc([N+](=O)[O-])cc2s1
inactive: dose: 100.0 mg/kg/injection, schedule: Q04DX002 (ip), vehicle: gum acacia 95 % of control | dose: 200.0 mg/kg/injection, schedule: Q04DX002 (ip), vehicle: gum acacia 95 % of control | dose: 400.0 mg/kg/injection, schedule: Q04DX002 (ip), vehicle: gum acacia 95 % of control

CCCCCCCCOc1nccc(N)n1
inactive: dose: 75.0 mg/kg/injection, schedule: Q01DX001 (ip), vehicle: saline with Tween-80 105 % of control

Cc1cc(C)c(N2C(=O)CC(Sc3ccccc3N)C2=O)c(C)c1 (stereo unspecified)
inactive: [11] 105 % of control | [12] 109 % of control | [13] 98 % of control

c1ccc(-c2ccc(C3=NC(c4ccccc4)CC3)[nH]2)cc1 (stereo unspecified)
inactive: [14] 90 % of control | [1] 90 % of control | [3] 86 % of control

CCCN(CCC)C(=O)CCC(C)O (stereo unspecified)
inactive: dose: 100.0 mg/kg/injection, schedule: Q01DX001 (ip), vehicle: acetone 113 % of control | dose: 200.0 mg/kg/injection, schedule: Q01DX001 (ip), vehicle: acetone 101 % of control | dose: 400.0 mg/kg/injection, schedule: Q01DX001 (ip), vehicle: acetone 103 % of control

CCCCCCC(C)O[Si](C)c1ccc(CC)cc1 (stereo unspecified)
inactive: [11] 99 % of control | [12] 95 % of control | [13] 103 % of control

CC1(C)C(=O)Nc2ccccc2N1C(=O)CN1CC2CCC(CC2)C1
inactive: dose: 100.0 mg/kg/injection, schedule: Q01DX009 (ip), vehicle: saline 94 % of control | [6] 93 % of control | dose: 200.0 mg/kg/injection, schedule: Q01DX009 (ip), vehicle: saline 92 % of control | [7] 95 % of control | [8] 98 % of control

CCCCCC[C@@H](O)C/C=C\CCCCCCCC(=O)OC
inactive: dose: 100.0 mg/kg/injection, schedule: Q01DX001 (ip), vehicle: saline 97 % of control | dose: 200.0 mg/kg/injection, schedule: Q01DX001 (ip), vehicle: saline 97 % of control | dose: 400.0 mg/kg/injection, schedule: Q01DX001 (ip), vehicle: saline 103 % of control

CCOC(=O)c1ccc(NC(=O)C(Br)C(Br)C(=O)O)cc1 (stereo unspecified)
inactive: dose: 100.0 mg/kg/injection, schedule: Q01DX009 (ip), vehicle: saline with Tween-80 94 % of control | [11] 101 % of control | dose: 200.0 mg/kg/injection, schedule: Q01DX009 (ip), vehicle: saline with Tween-80 94 % of control | [12] 100 % of control | dose: 400.0 mg/kg/injection, schedule: Q01DX009 (ip), vehicle: saline with Tween-80 97 % of control | [13] 101 % of control

CCOc1cc[n+]([O-])cc1C
inactive: [15] 102 % of control | [16] 98 % of control
